We go through two compounds from PMC7587337, “Kaempferol Facilitated Extinction Learning in Contextual Fear Conditioned Rats via Inhibition of Fatty-Acid Amide Hydrolase” (Molecules, 2020).

The target of assay [1] is T1, fatty-acid amide hydrolase (FAAH) (Homo sapiens, UniProt O00519).
T1 sequence (O00519 1-579): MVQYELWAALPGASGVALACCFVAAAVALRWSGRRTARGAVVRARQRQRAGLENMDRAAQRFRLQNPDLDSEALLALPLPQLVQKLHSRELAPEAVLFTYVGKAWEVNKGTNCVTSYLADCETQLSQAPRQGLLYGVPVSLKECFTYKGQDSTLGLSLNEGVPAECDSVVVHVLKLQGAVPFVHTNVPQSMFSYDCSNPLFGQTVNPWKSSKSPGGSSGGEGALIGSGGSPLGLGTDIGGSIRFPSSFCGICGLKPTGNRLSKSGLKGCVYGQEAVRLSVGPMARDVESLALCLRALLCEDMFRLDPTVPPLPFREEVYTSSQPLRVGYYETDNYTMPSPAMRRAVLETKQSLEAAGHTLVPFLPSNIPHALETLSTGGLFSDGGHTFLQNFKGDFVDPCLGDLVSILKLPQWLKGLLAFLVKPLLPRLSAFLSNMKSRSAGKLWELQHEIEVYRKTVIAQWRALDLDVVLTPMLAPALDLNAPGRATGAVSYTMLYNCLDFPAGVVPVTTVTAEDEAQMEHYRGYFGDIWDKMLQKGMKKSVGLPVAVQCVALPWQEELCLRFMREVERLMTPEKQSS
Description: FAAH inhibitor screening assay kit (Cayman […]), percent inhibition at […]. It is filed as biochemical.

The target of assay [2] is T1, fatty-acid amide hydrolase (FAAH). Kind of assay: FAAH inhibitor screening assay kit (Cayman […]), dose-response […]. It is filed as biochemical.

In turn, `O=C(Oc1ccc([N+](=O)[O-])cc1)N1CCN(Cc2cccc(Oc3ccccc3)c2)CC1` [JZL195] registered an inhibition at 10 µM in assay [1] of 88 ± 1.26%. Compound `O=c1c(O)c(-c2ccc(O)cc2)oc2cc(O)cc(O)c12` [kaempferol] came in with an IC50 in assay [2] of 1060 nM.
